Tests used:
[1] = molecular target: T1, HiBiT-BRM (Homo sapiens, UniProt P51531); experiment: HiBiT-BRM cell-based degradation assay (Nano-Glo HiBiT Lytic Detection); details: HeLa cells expressing HiBiT-BRM, 24 h; for DC50: read-out: BRM HiBit Degradation IC50
T1 construct: expressed in transfected cells
Protocol: (§1) Procedure: A stable HeLa cell line expressing HiBiT-BRM was generated. On day 0, 5000 cells were seeded in 40 μL of media into each well of 384-well cell culture plates. […] Subsequently plates were incubated for 24 h in a standard tissue culture incubator and equilibrated at room temperature for 15 minutes. Nano-Glo HiBiT Lytic Detection System (Promega N3050) reagent was freshly prepared and 20 ul was added to each well. Upon addition of this LgBit-containing reagent, the HiBiT and LgBiT proteins associate to form the luminescent NanoBiT luciferase. The plates were shaken for 10 minutes at room temperature and the bioluminescence read using an EnVision plate reader (PerkinElmer).
(§2) The degradation % was calculated using the following formula: % degradation=100%−100%×(LumSample−LumLC)/(LumHC−LumLC). DMSO treated cells are employed as High Control (HC) and 2 μM of a known BRM/BRG1 degrader standard treated cells are employed as Low Control (LC).

[2] = molecular target: T2, HiBit-BRG1 (Homo sapiens, UniProt P51532); experiment: HiBit-BRG1 cell-based degradation assay (Nano-Glo HiBiT Lytic Detection); details: HeLa cells expressing HiBit-BRG1 and LgBit, 24 h; for DC50: read-out: BRG1 HiBit Degradation IC50; for Dmax: read-out: BRG1 HiBit Degradation Maximum (%)
T2 construct: expressed in transfected cells
T2 sequence (P51532 whole entry): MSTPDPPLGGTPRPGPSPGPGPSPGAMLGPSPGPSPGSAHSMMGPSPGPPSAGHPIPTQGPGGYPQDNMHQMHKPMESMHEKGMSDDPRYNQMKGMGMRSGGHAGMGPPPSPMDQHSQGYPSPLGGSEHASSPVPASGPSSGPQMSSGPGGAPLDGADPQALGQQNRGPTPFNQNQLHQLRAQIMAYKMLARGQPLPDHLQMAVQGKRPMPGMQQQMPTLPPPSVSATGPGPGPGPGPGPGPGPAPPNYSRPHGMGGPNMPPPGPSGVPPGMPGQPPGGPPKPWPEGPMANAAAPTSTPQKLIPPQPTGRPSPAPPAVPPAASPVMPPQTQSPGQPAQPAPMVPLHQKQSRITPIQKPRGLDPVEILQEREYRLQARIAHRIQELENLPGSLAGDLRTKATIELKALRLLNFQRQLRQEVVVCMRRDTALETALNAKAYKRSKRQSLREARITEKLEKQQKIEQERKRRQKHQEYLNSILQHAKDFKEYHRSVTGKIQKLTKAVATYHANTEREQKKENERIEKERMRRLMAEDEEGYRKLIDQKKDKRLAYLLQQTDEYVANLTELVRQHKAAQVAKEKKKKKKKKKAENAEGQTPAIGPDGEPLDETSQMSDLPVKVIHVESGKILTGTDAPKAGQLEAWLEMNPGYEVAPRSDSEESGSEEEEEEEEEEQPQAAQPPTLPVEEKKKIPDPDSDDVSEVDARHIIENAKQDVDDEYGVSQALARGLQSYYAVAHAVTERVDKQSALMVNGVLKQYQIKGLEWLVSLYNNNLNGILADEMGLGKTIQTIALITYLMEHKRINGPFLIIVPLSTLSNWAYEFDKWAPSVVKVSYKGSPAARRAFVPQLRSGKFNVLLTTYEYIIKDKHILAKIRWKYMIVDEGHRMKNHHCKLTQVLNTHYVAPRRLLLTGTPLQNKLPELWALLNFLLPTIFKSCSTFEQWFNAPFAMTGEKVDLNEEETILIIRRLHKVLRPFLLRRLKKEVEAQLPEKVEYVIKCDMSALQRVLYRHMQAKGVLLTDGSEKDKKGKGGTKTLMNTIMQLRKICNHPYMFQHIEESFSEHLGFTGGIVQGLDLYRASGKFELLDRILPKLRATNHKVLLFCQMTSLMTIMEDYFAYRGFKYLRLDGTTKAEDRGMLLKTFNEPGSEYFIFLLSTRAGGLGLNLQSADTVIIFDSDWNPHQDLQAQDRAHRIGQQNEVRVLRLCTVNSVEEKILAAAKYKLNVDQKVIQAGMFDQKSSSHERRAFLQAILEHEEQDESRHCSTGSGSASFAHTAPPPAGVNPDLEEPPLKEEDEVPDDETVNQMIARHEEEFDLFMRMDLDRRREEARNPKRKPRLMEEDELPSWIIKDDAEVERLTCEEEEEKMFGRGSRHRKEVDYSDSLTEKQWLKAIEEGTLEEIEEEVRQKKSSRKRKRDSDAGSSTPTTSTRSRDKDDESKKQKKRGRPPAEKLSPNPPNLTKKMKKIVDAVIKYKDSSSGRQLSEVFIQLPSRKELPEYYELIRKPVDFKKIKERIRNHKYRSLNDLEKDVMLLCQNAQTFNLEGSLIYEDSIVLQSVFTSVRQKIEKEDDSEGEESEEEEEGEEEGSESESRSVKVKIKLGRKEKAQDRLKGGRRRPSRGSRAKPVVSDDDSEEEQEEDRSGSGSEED
Protocol: as §1
For measurement of BRG1 degradation, a stable HeLa cell line expressing HiBit-BRG1 and LgBit was generated. The same protocol as above was then followed.
as §2

T1 sequence (P51531 whole entry): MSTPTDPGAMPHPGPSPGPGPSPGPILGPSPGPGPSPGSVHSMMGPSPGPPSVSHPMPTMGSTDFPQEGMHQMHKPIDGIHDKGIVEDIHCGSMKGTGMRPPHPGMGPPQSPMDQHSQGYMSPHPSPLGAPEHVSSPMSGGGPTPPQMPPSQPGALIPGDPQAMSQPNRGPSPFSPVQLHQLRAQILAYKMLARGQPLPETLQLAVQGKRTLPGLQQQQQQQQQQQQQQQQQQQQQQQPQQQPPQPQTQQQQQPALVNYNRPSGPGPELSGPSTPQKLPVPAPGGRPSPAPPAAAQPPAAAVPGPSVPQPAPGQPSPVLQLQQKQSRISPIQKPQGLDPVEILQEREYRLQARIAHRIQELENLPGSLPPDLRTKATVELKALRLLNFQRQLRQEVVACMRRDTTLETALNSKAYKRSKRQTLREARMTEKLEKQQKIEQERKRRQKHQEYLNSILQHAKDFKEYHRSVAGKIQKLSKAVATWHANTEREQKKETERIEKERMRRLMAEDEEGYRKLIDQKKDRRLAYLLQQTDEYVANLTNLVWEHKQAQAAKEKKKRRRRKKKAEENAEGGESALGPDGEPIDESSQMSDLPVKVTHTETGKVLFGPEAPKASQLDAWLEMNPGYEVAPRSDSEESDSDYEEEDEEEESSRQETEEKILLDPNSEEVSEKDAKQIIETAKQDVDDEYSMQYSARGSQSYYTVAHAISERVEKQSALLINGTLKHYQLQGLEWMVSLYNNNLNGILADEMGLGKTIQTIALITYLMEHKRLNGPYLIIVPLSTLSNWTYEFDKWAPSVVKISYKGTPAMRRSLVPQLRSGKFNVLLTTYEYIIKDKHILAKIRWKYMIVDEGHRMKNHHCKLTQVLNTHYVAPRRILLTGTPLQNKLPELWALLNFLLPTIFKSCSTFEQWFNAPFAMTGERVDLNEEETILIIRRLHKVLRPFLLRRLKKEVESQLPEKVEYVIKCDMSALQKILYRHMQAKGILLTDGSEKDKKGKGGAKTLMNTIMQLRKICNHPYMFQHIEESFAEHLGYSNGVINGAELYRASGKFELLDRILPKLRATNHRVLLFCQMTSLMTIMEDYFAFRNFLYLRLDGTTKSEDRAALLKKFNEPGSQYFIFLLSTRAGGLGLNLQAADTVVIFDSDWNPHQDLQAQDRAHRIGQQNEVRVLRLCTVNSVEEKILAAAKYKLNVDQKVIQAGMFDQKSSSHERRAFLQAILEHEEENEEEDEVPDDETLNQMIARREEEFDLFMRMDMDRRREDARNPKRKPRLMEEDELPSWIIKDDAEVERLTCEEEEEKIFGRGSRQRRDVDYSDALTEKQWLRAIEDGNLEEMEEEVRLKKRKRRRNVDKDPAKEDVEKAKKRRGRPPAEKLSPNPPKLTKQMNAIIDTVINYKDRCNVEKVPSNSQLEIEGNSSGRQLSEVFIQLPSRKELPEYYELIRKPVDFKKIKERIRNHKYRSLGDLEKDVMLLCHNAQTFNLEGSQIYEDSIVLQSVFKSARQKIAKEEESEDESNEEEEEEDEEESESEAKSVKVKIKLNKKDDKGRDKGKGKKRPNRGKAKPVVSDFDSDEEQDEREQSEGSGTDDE

| DC50 [1] | DC50 [2] | Dmax [2] | Structure (SMILES) | BRM HiBit Degradation Maximum (%) [1] |
| --- | --- | --- | --- | --- |
| > 100 nM | > 1000 nM | < 50% | CCN(CCc1ccc(C(=O)NCCCCCCCCCC(=O)N[C@H](C(=O)N2C[C@H](O)C[C@H]2C(=O)NCc2ccc(-c3scnc3C)cc2)C(C)(C)C)cc1)c1cc(-c2ccccc2O)nnc1N (racemic) [Compound 144, (2S,4R)-1-((S)-2-(10-(4-(2-((3-amino-6-(2-hydroxyphenyl)pyridazin-4-yl)(ethyl)amino)ethyl)benzamido)decanamido)-3,3-dimethylbutanoyl)-4-hydroxy-N-(4-(4-methylthiazol-5-yl)benzyl)pyrrolidine-2-carboxamide] | A (“A” indicates maximum degradation ≥75%) |
| > 1000 nM | > 1000 nM | < 50% | Cc1ncsc1-c1ccc(CNC(=O)[C@H]2C[C@H](O)CN2C(=O)[C@H](NC(=O)CCCCCNC(=O)c2ccc(CCOc3cc(-c4ccccc4O)nnc3N)cc2)C(C)(C)C)cc1 (stereo in doubt) [Compound 53, (2R,4S)-1-((R)-2-(6-(4-(2-((3-amino-6-(2-hydroxyphenyl)pyridazin-4-yl)oxy)ethyl)benzamido)hexanamido)-3,3-dimethylbutanoyl)-4-hydroxy-N-(4-(4-methylthiazol-5-yl)benzyl)pyrrolidine-2-carboxamide] | C (“C” indicates maximum degradation <50%) |
| > 1000 nM | > 1000 nM | < 50% | Cc1ncsc1-c1ccc(CNC(=O)[C@H]2C[C@H](O)CN2C(=O)[C@H](NC(=O)COCCOCCNC(=O)c2ccc(CCOc3cc(-c4ccccc4O)nnc3N)cc2)C(C)(C)C)cc1 (stereo in doubt) [Compound 59, (2R,4S)-1-[(2R)-2-[2-[2-(2-[[4-(2-[[3-amino-6-(2-hydroxyphenyl)pyridazin-4-yl]oxy]ethyl)phenyl]formamido]ethoxy)ethoxy]acetamido]-3,3-dimethylbutanoyl]-4-hydroxy-N-[[4-(4-methyl-1,3-thiazol-5-yl)phenyl]methyl]pyrrolidine-2-carboxamide] | B (“B” indicates maximum degradation ≥50%) |
| > 1000 nM | > 1000 nM | < 50% | Cc1ncsc1-c1ccc(CNC(=O)[C@H]2C[C@H](O)CN2C(=O)[C@H](NC(=O)COCCOCCOCCNC(=O)c2ccc(CCOc3cc(-c4ccccc4O)nnc3N)cc2)C(C)(C)C)cc1 (stereo in doubt) [Compound 60, (2R,4S)-1-[(2R)-2-(2-[2-[2-(2-[[4-(2-[[3-amino-6-(2-hydroxyphenyl)pyridazin-4-yl]oxy]ethyl)phenyl]formamido]ethoxy)ethoxy]ethoxy]acetamido)-3,3-dimethylbutanoyl]-4-hydroxy-N-[[4-(4-methyl-1,3-thiazol-5-yl)phenyl]methyl]pyrrolidine-2-carboxamide] | B (“B” indicates maximum degradation ≥50%) |
| > 1000 nM | > 1000 nM | < 50% | Cc1ncsc1-c1ccc(CNC(=O)[C@H]2C[C@H](O)CN2C(=O)[C@H](NC(=O)CCCCCNC(=O)CN2CCN(c3cc(-c4ccccc4O)nnc3N)CC2)C(C)(C)C)cc1 (stereo in doubt) [Compound 101, (2R,4S)-1-[(2R)-2-[6-(2-[4-[3-amino-6-(2-hydroxyphenyl)pyridazin-4-yl]piperazin-1-yl]acetamido)hexanamido]-3,3-dimethylbutanoyl]-4-hydroxy-N-[[4-(4-methyl-1,3-thiazol-5-yl)phenyl]methyl]pyrrolidine-2-carboxamide] | B (“B” indicates maximum degradation ≥50%) |
| > 100 nM | > 1000 nM | – | Nc1nnc(-c2ccccc2O)cc1OCCc1ccc(CNC(=O)CCCCNc2cccc3nnn(C4CCC(=O)NC4=O)c(=O)c23)cc1 (stereo not shown) [Compound 1, N-(4-(2-((3-amino-6-(2-hydroxyphenyl)pyridazin-4-yl)oxy)ethyl)benzyl)-5-((3-(2,6-dioxopiperidin-3-yl)-4-oxo-3,4-dihydrobenzo[d][1,2,3]triazin-5-yl)amino)pentanamide] | – |
| > 1000 nM | > 1000 nM | < 50% | Nc1nnc(-c2ccccc2O)cc1OCCc1ccc(CNCCN2CCN(c3ccc4c(c3)C(=O)N(C3CCC(=O)NC3=O)C4=O)CC2)cc1 (stereo not shown) [Compound 3, 5-(4-(2-((4-(2-((3-amino-6-(2-hydroxyphenyl)pyridazin-4-yl)oxy)ethyl)benzyl)amino)ethyl)piperazin-1-yl)-2-(2,6-dioxopiperidin-3-yl)isoindoline-1,3-dione] | C (“C” indicates maximum degradation <50%) |
| > 1000 nM | > 1000 nM | < 50% | Nc1nnc(-c2ccccc2O)cc1OCCc1ccc(C(=O)NCCCCCCCCCCCCCCC(=O)NCc2ccc(S(=O)(=O)Nc3cccc4c(Cl)c[nH]c34)cc2)cc1 [Compound 6, 15-[[4-(2-[[3-amino-6-(2-hydroxyphenyl)pyridazin-4-yl]oxy]ethyl)phenyl]formamido]-N-([4-[(3-chloro-1H-indol-7-yl)sulfamoyl]phenyl]methyl)pentadecanamide] | C (“C” indicates maximum degradation <50%) |
| > 1000 nM | > 1000 nM | < 50% | Nc1nnc(-c2ccccc2O)cc1OCCc1ccc(CNC(=O)C2CC2CNC(=O)COc2cccc3c2C(=O)N(C2CCC(=O)NC2=O)C3=O)cc1 (stereo not shown) [Compound 7, N-[[4-(2-[[3-amino-6-(2-hydroxyphenyl)pyridazin-4-yl]oxy]ethyl)phenyl]methyl]-2-[(2-[[2-(2,6-dioxopiperidin-3-yl)-1,3-dioxoisoindol-4-yl]oxy]acetamido)methyl]cyclopropane-1-carboxamide] | C (“C” indicates maximum degradation <50%) |

| Structure (SMILES) | DC50 [1] | DC50 [2] | Dmax [2] | BRM HiBit Degradation Maximum (%) [1] |
| --- | --- | --- | --- | --- |
| Nc1nnc(-c2ccccc2O)cc1OCCc1ccc(CNC(=O)CCCCNc2cccc3c2CN(C2CCC(=O)NC2=O)C3=O)cc1 (stereo not shown) [Compound 2, N-(4-(2-((3-amino-6-(2-hydroxyphenyl)pyridazin-4-yl)oxy)ethyl)benzyl)-5-((2-(2,6-dioxopiperidin-3-yl)-1-oxoisoindolin-4-yl)amino)pentanamide] | > 1000 nM | > 1000 nM | – | C (“C” indicates maximum degradation <50%) |
| Nc1nnc(-c2ccccc2O)cc1OCCc1ccc(CNC(=O)CCCCNc2cccc3c2C(=O)N(C2CCC(=O)NC2=O)C3=O)cc1 (stereo not shown) [Compound 4, N-[[4-(2-[[3-amino-6-(2-hydroxyphenyl)pyridazin-4-yl]oxy]ethyl)phenyl]methyl]-5-[[2-(2,6-dioxopiperidin-3-yl)-1,3-dioxoisoindol-4-yl]amino]pentanamide] | > 100 nM | > 1000 nM | – | B (“B” indicates maximum degradation ≥50%) |
| Nc1nnc(-c2ccccc2O)cc1OCCc1ccc(CNC(=O)CCCCOc2ccc3c(c2)C(=O)N(C2CCC(=O)NC2=O)C3=O)cc1 (stereo not shown) [Compound 5, N-(4-(2-((3-amino-6-(2-hydroxyphenyl)pyridazin-4-yl)oxy)ethyl)benzyl)-5-((2-(2,6-dioxopiperidin-3-yl)-1,3-dioxoisoindolin-5-yl)oxy)pentanamide] | > 1000 nM | > 1000 nM | – | C (“C” indicates maximum degradation <50%) |
